Test results reported in patent US12364689B2, “Dosage regimen for the treatment of cancer” (AstraZeneca AB, priority 2020, dated 2025).

Tested on: ER positive, HER2 negative advanced breast cancer
Experiment: Phase 1 dose-escalation and expansion clinical trial: anti-tumour activity by RECIST 1.1
Format: in vivo, human
Conditions: for ORR (%) objective response rate: responders/evaluable (percent)
Description: “Objective response rate” is the percentage of patients with measurable disease at baseline and who have a date of first dose of >17 weeks or a date of post-treatment scan of >15 weeks that indicates a confirmed response as measured by the RECIST criteria. “Clinical benefit rate” is the percentage of patients who have a date of first dose of ≥25 weeks or a date of post-treatment scan of >23 weeks that indicates a confirmed response or stable disease as measured by the RECIST criteria for >23 weeks post treatment. Introduction: To determine the optimal dosing regimen for AZD9833 Phase 1 dose-escalation and expansion in patients with ER positive, HER2 negative advanced breast cancer was carried out according to the following basic protocol. Overall Design: This is a multicentre dose escalation and expansion, first-in-human study designed to evaluate the safety and tolerability of AZD9833 alone (Parts A and B) in women with endocrine-resistant ER+HER2-breast cancer that is not amenable to treatment with curative intent. Efficacy Assessment: Anti-tumour activity will be evaluated using RECIST 1.1 by investigator assessments. Baseline tumour assessments should encompass all areas of known predilection for metastases in the disease under evaluation and should additionally investigate areas that may be involved based on signs and symptoms of individual subjects. Baseline assessments should be performed no more than 28 days before the start of AZD9833, ideally, as close as possible to the start of AZD9833. The methods of assessment used at baseline should be used at each subsequent assessment during treatment and follow-up part of the study. Any other sites at which new disease is suspected should also be appropriately imaged. If an unscheduled assessment is performed and the subject has not progressed, every attempt should be made to perform subsequent assessments at the scheduled visits while the subject remains on AZD9833 or until they have progressed. Categorisation of objective tumour response assessment will be based on the RECIST 1.1 guidelines for response: complete response (CR), partial response (PR), stable disease (SD), and progression of disease (PD). For subjects who only have non-measurable disease at baseline, categorisation of objective tumour response assessment will be based on the RECIST 1.1 guidelines for response for non-target lesions (NTLs): CR, PD, and non-CR/non PD. If the investigator is unsure whether progression has occurred, particularly with response to NTLs or the appearance of a new lesion, it is advisable to continue AZD9833 and reassess the subject's status at the next scheduled assessment, or sooner if clinically indicated. To achieve ‘unequivocal progression’ on the basis of non-target disease, there must be an overall level of substantial worsening in non-target disease such that, even in presence of SD or PR in the target disease, the overall tumour burden has increased sufficiently to merit discontinuation of therapy. A modest increase in the size of one or more NTLs is usually not sufficient to qualify for unequivocal disease progression status. A clinical trial according to the above protocol was carried out using 60 patients.

C[C@@H]1Cc2c(ccc3[nH]ncc23)[C@@H](c2ccc(NC3CN(CCCF)C3)cn2)N1CC(F)(F)F [AZD9833, N-(1-(3-fluoropropyl)azetidin-3-yl)-6-((6S,8R)-8-methyl-7-(2,2,2-trifluoroethyl)-6,7,8,9-tetrahydro-3H-pyrazolo[4,3-f]isoquinolin-6-yl) pyridin-3-amine]
CBR (%) clinical benefit rate at 24 weeks (25 mg QD oral (n = 12)): 4/12 (33.3) %
ORR (%) objective response rate (25 mg QD oral (n = 12)): 1/9 (11.1) %
CBR (%) clinical benefit rate at 24 weeks (75 mg QD oral (n = 12)): 8/12 (66.7) %
ORR (%) objective response rate (75 mg QD oral (n = 12)): 1/7 (14.3) %
CBR (%) clinical benefit rate at 24 weeks (150 mg QD oral (n = 13)): 4/13 (30.8) %
ORR (%) objective response rate (150 mg QD oral (n = 13)): 2/11 (18.2) %
CBR (%) clinical benefit rate at 24 weeks (300 mg QD oral (n = 13)): 3/11 (27.3) %
ORR (%) objective response rate (300 mg QD oral (n = 13)): 2/10 (20.0) %
CBR (%) clinical benefit rate at 24 weeks (450 mg QD oral (n = 10)): 3/4 (75.0) %
ORR (%) objective response rate (450 mg QD oral (n = 10)): 1/6 (16.7) %
CBR (%) clinical benefit rate at 24 weeks (Total, all doses (n = 60)): 22/52 (42.3) %
ORR (%) objective response rate (Total, all doses (n = 60)): 7/43 (16.3) %
Evidence of clinical benefit and target engagement (women with ER+ ABC, incl. pre-treated with CDK4/6 inhibitors and fulvestrant, and ESR1 mutations): observed at all dose levels
